Each structure is given as a SMILES string.

For this assay, the target named is BTK enzyme (full-length BTK, hBTK) (Homo sapiens (Human), UniProt Q06187). The experiment in a line: Btk enzyme activity assay, LANCE TR-FRET. To be noted: 50 pM hBTK, 2 μM biotin-A5-peptide, 25 μM ATP, 60 minute compound & enzyme incubation, read-out: BTK binding IC50. The format is biochemical. As to the method: BTK enzymatic activity was determined with the LANCE (Lanthanide Chelate Excite) TR-FRET (Time-resolved fluorescence resonance energy transfer) assay. In this assay, the potency (IC50) of each compound was determined from an eleven point (1:3 serial dilution; final compound concentration range in assay from 1 μM to 0.017 nM) titration curve using the following outlined procedure. To each well of a black non-binding surface Corning 384-well microplate (Corning Catalog #3820), 5 nL of compound (2000 fold dilution in final assay volume of 10 μL) was dispensed, followed by the addition of 7.5 μL of 1× kinase buffer (50 mM Hepes 7.5, 10 mM MgCl2, 0.01% Brij-35, 1 mM EGTA, 0.05% BSA & 1 mM DTT) containing 5.09 pg/μL (66.67 pM) of BTK enzyme (recombinant protein from baculovirus-transfected Sf9 cells: full-length BTK, 6HIS-tag cleaved). Following a 60 minute compound & enzyme incubation, each reaction was initiated by the addition of 2.5 μL 1× kinase buffer containing 8 μM biotinylated “A5” peptide (Biotin-EQEDEPEGDYFEWLE-NH2) (SEQ. ID. NO.: 1), and 100 μM ATP. The final reaction in each well of 10 μL consists of 50 pM hBTK, 2 μM biotin-A5-peptide, and 25 μM ATP. Phosphorylation reactions were allowed to proceed for 120 minutes. Reactions were immediately quenched by the addition of 20 uL of 1× quench buffer (15 mM EDTA, 25 mM Hepes 7.3, and 0.1% Triton X-100) containing detection reagents (0.626 nM of LANCE-Eu-W1024-anti-phosphoTyrosine antibody, PerkinElmer and 86.8 nM of Streptavidin-conjugated Dylight 650, Dyomics/ThermoFisher Scientific). After 60 minutes incubation with detection reagents, reaction plates were read on a PerkinElmer EnVision plate reader using standard TR-FRET protocol. Briefly, excitation of donor molecules (Eu-chelate:anti-phospho-antibody) with a laser light source at 337 nm produces energy that can be transferred to Dylight-650 acceptor molecules if this donor:acceptor pair is within close proximity. Fluorescence intensity at both 665 nm (acceptor) and 615 nm (donor) are measured and a TR-FRET ratio calculated for each well (acceptor intensity/donor intensity). IC50 values were determined by 4 parameter robust fit of TR-FRET ratio values vs. (Log10) compound concentrations.
Sequence of BTK enzyme (full-length BTK, hBTK) (Q06187 whole entry): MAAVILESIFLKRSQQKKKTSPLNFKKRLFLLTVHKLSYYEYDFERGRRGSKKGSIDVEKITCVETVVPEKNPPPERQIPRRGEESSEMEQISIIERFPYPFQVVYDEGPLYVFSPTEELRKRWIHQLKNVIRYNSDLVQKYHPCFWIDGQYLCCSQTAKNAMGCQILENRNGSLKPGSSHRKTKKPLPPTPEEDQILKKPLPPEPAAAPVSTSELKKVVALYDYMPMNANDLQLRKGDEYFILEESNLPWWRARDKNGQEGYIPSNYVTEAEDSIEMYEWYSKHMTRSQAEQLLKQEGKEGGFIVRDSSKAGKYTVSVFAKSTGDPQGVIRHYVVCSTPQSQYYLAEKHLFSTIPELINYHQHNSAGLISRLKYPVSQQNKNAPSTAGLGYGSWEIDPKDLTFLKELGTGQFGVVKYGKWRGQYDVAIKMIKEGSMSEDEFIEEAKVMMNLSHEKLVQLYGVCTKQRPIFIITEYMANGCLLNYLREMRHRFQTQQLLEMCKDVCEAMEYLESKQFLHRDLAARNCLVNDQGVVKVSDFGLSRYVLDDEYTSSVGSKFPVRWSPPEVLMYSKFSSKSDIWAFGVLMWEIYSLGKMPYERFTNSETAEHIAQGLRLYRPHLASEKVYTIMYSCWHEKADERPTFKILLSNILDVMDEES
For `CCOc1cc(C(=O)Nc2cc(C(F)(F)F)ccn2)ccc1-c1nc(C2(CC)CCC3CCN(CC)C(=O)N3C2)n2ccnc(N)c12` (single isomer, unassigned) [Example 5, 4-[8-amino-3-(2,7-diethyl-1-oxooctahydro-1H-pyrido[1,2-c]pyrimidin-7-yl)imidazo[1,5-a]pyrazin-1-yl]-3-ethoxy-N-[4-(trifluoromethyl)pyridin-2-yl] benzamide], the IC50 is 1000 nM.

Consider `CCOc1cc(C(=O)Nc2cc(C(F)(F)F)ccn2)ccc1-c1nc(C2(CC)CCC3CCN(CC)C(=O)N3C2)n2ccnc(N)c12` (single isomer, unassigned) [Example 6, 4-[8-amino-3-(2,7-diethyl-1-oxooctahydro-1H-pyrido[1,2-c]pyrimidin-7-yl)imidazo[1,5-a]pyrazin-1-yl]-3-ethoxy-N-[4-(trifluoromethyl)pyridin-2-yl] benzamide], for which the IC50 stood at 215 nM.

`CCOc1cc(C(=O)Nc2cc(C(F)(F)F)ccn2)ccc1-c1nc([C@@]2(C)CC[C@@H]3COC(=O)N3C2)n2ccnc(N)c12` [Example 1, 4-(8-amino-3-((6S,8aR)-6-methyl-3-oxohexahydro-1H-oxazolo[3,4-a]pyridin-6-yl)imidazo[1,5-a]pyrazin-1-yl)-3-ethoxy-N-(4-(trifluoromethyl)pyridin-2-yl)benzamide]: the IC50 was found to be 0.61 nM.

In the case of `CCOc1cc(C(=O)Nc2cc(C(F)(F)F)n(C)n2)ccc1-c1nc([C@@]2(C)CC[C@@H]3COC(=O)N3C2)n2ccnc(N)c12` [Example 2, 4-(8-amino-3-((6S,8aR)-6-methyl-3-oxohexahydro-1H-oxazolo[3,4-a]pyridin-6-yl)imidazo[1,5-a]pyrazin-1-yl)-3-ethoxy-N-(1-methyl-5-(trifluoromethyl)-1H-pyrazol-3-yl)benzamide], the IC50 turned out to be 3.07 nM.

As to `CCOc1cc(C(=O)Nc2cc(C(F)(F)F)ccn2)ccc1-c1nc([C@@]2(C)CC[C@@H]3CN(C(C)C)CC(=O)N3C2)n2ccnc(N)c12` [Example 3, 4-(8-amino-3-((7S,9aR)-2-isopropyl-7-methyl-4-oxooctahydro-1H-pyrido[1,2-a]pyrazin-7-yl)imidazo[1,5-a]pyrazin-1-yl)-3-ethoxy-N-(4-(trifluoromethyl)pyridin-2-yl)benzamide bis(2,2,2-trifluoroacetate)], the IC50 turned out to be 0.61 nM.

Regarding `CCOc1cc(C(=O)Nc2cc(C(F)(F)F)n(C)n2)ccc1-c1nc([C@@]2(C)CC[C@@H]3CN(C(C)C)CC(=O)N3C2)n2ccnc(N)c12` [Example 4, 4-(8-amino-3-((7S,9aR)-2-isopropyl-7-methyl-4-oxooctahydro-1H-pyrido[1,2-a]pyrazin-7-yl)imidazo[1,5-a]pyrazin-1-yl)-3-ethoxy-N-(1-methyl-5-(trifluoromethyl)-1H-pyrazol-3-yl)benzamide bis(2,2,2-trifluoroacetate)], the IC50 is 2.5 nM.

Regarding `CCOc1cc(C(=O)Nc2cc(C(F)(F)F)ccn2)ccc1-c1nc([C@]2(C)CC[C@H]3COC(=O)N3C2)n2ccnc(N)c12` [Example 7], the IC50 stood at 0.59 nM.

Turning to `CCOc1cc(C(=O)Nc2cc(C(F)(F)F)n(C)n2)ccc1-c1nc([C@]2(C)CC[C@H]3COC(=O)N3C2)n2ccnc(N)c12` [Example 8, 4-{8-amino-3-[(6R,8aS)-6-methyl-3-oxohexahydro[1,3]oxazolo[3,4-a]pyridin-6-yl]imidazo[1,5-a]pyrazin-1-yl}-3-ethoxy-N-[1-methyl-5-(trifluoromethyl)-1H-pyrazol-3-yl]benzamide], the IC50 worked out at 0.7 nM.

Take `C[C@@]1(c2nc(-c3ccc(C(=O)Nc4cc(C(F)(F)F)ccn4)cc3F)c3c(N)nccn23)CC[C@H]2COC(=O)N2C1` [Example 9, 4-{8-amino-3-[(6R,8aS)-6-methyl-3-oxohexahydro[1,3]oxazolo[3,4-a]pyridin-6-yl]imidazo[1,5-a]pyrazin-1-yl}-3-fluoro-N-[4-(trifluoromethyl)pyridin-2-yl] benzamide]: the IC50 was 0.22 nM.

For `C[C@@]1(c2nc(-c3ccc(C(=O)Nc4cc(C5CC5)ccn4)cc3F)c3c(N)nccn23)CC[C@H]2COC(=O)N2C1` [Example 10, 4-{8-amino-3-[(6R,8aS)-6-methyl-3-oxohexahydro[1,3]oxazolo[3,4-a]pyridin-6-yl]imidazo[1,5-a]pyrazin-1-yl}-N-(4-cyclopropylpyridin-2-yl)-3-fluorobenzamide], the IC50 amounted to 0.18 nM.

Regarding `CCOc1cc(C(=O)Nc2cc(C(F)(F)F)ccn2)cc(F)c1-c1nc([C@]2(C)CC[C@H]3COC(=O)N3C2)n2ccnc(N)c12` [Example 11, 4-{8-amino-3-[(6R,8aS)-6-methyl-3-oxohexahydro[1,3]oxazolo[3,4-a]pyridin-6-yl]imidazo[1,5-a]pyrazin-1-yl}-3-ethoxy-5-fluoro-N-[4-(trifluoromethyl)pyridin-2-yl] benzamide], the IC50 stood at 0.59 nM.

Regarding `CCOc1cc(C(=O)Nc2cc(C(F)(F)F)ccn2)ccc1-c1nc(C2(C)CCC3CCN(C)C(=O)N3C2)n2ccnc(N)c12` (stereo not shown) [Example 12, 4-[8-amino-3-(2,7-dimethyl-1-oxooctahydro-1H-pyrido[1,2-c]pyrimidin-7-yl)imidazo[1,5-a]pyrazin-1-yl}-3-ethoxy-N-[4-(trifluoromethyl)pyridin-2-yl] benzamide], the IC50 is 411 nM.

With `CCOc1cc(C(=O)Nc2cc(C(F)(F)F)ccn2)ccc1-c1nc(C2(C)CCC3CCN(C)C(=O)N3C2)n2ccnc(N)c12` (stereo not shown) [Example 13, 4-[8-amino-3-(2,7-dimethyl-1-oxooctahydro-1H-pyrido[1,2-c]pyrimidin-7-yl)imidazo[1,5-a]pyrazin-1-yl]-3-ethoxy-N-[4-(trifluoromethyl)pyridin-2-yl] benzamide], the IC50 stood at 10 nM.

As to `CCOc1cc(C(=O)Nc2cc(C(F)(F)F)ccn2)ccc1-c1nc([C@]2(C)CC[C@H]3CN(C(C)C)CC(=O)N3C2)n2ccnc(N)c12` [Example 14, 4-{8-amino-3-[(7R,9aS)-7-methyl-2-(1-methylethyl)-4-oxooctahydro-2H-pyrido[1,2-a]pyrazin-7-yl]imidazo[1,5-a]pyrazin-1-yl}-3-ethoxy-N-[4-(trifluoromethyl)pyridin-2-yl] benzamide], the IC50 came to 0.42 nM.

With `CCOc1cc(C(=O)Nc2cc(C(F)(F)F)n(C)n2)ccc1-c1nc([C@]2(C)CC[C@H]3CN(C(C)C)CC(=O)N3C2)n2ccnc(N)c12` [Example 15, 4-{8-amino-3-[(7R,9aS)-7-methyl-2-(1-methylethyl)-4-oxooctahydro-2H-pyrido[1,2-a]pyrazin-7-yl]imidazo[1,5-a]pyrazin-1-yl}-3-ethoxy-N-[1-methyl-5-(trifluoromethyl)-1H-pyrazol-3-yl]benzamide], the IC50 was found to be 1.27 nM.

For the compound `CCOc1cc(C(=O)Nc2cc(C(F)(F)F)n(C)n2)c(Cl)cc1-c1nc([C@]2(C)CC[C@H]3CN(C(C)C)CC(=O)N3C2)n2ccnc(N)c12` [Example 16, 4-{8-amino-3-[(7R,9aS)-7-methyl-2-(1-methylethyl)-4-oxooctahydro-2H-pyrido[1,2-a]pyrazin-7-yl]imidazo[1,5-a]pyrazin-1-yl}-2-chloro-5-ethoxy-N-[1-methyl-5-(trifluoromethyl)-1H-pyrazol-3-yl] benzamide], the IC50 is 3.41 nM.

For the compound `C[C@@]1(c2nc(-c3ccc(C(=O)Nc4cc(C(F)(F)F)ccn4)cc3)c3c(N)nccn23)CC[C@H]2CCC(=O)N2C1` [Example 17, 4-(8-amino-3-((6R,8aS)-6-methyl-3-oxooctahydroindolizin-6-yl)imidazo[1,5-a]pyrazin-1-yl)-N-(4-(trifluoromethyl)pyridin-2-yl)benzamide], the IC50 was found to be 0.18 nM.

For `CCOc1cc(C(=O)Nc2cc(C(F)(F)F)ccn2)ccc1-c1nc([C@]2(C)CC[C@H]3CCC(=O)N3C2)n2ccnc(N)c12` [Example 18, 4-(8-amino-3-((6R,8aS)-6-methyl-3-oxooctahydroindolizin-6-yl)imidazo[1,5-a]pyrazin-1-yl)-3-ethoxy-N-(4-(trifluoromethyl)pyridin-2-yl)benzamide], the half-maximal inhibitory concentration (IC50) was 0.44 nM.

Regarding `COc1cc(C(=O)Nc2cc(C(F)(F)F)ccn2)ccc1-c1nc([C@]2(C)CC[C@H]3CCC(=O)N3C2)n2ccnc(N)c12` [Example 19, 4-(8-amino-3-((6R,8aS)-6-methyl-3-oxooctahydroindolizin-6-yl)imidazo[1,5-a]pyrazin-1-yl)-3-methoxy-N-(4-(trifluoromethyl)pyridin-2-yl)benzamide], the half-inhibitory concentration (IC50) came to 0.33 nM.

Source of the values: US10040805B2, “Substituted imidazo[1,5-a]pyrazines as Btk inhibitors” (MERCK SHARP & DOHME CORP., priority 2014, dated 2018).
